According to patent publication EP0158545A1, “[Alpha-(alkylaminomethyl)-benzylthio]-acetic-acid derivatives, process for their preparation and their therapeutic use” (priority 1984, dated 1985):

Tests used:
[1] = tested on: souris mâle; settings: mouse, in vivo, ip
Description: (§1) On a résumé ci-après les résultats des essais neuropsychopharmacologiques qui ont été entrepris avec les produits préférés selon l'invention, le CRL 41 190 (Ex 1) et le CRL 41 214 (Ex 3). Dans ce résumé, les deux produits à tester mis en solution dans de l'eau distillée ont été administrés, sauf indiction contraire, par voie intrapéritonéale sous un volume de 20 ml/kg chez la souris mâle et sous un volume de 5 ml/kg chez le rat mâle. […]
La DL-0 (dose maximale non mortelle) du CRL 41 190 est supérieure à 128 mg/kg par voie I.P. chez la souris mâle, et la DL-30 est de l'ordre de 256 mg/kg.
Par voie I.P. chez la souris mâle, la DL-0 est supérieure à 256 mg/kg.

[2] = tested on: souris; assay: Global behaviour and reactivities, mouse; type: in vivo; settings: I.P.
Description: as §1
(§2) Des lots de trois animaux sont observés avant puis 0,25 h, 0,5, h, 1 h, 2 h, 3 h et 24 h après administration de CRL 41 190.

[3] = tested on: rat; assay: Global behaviour and reactivities, rat; type: in vivo; settings: I.P.
Description: as §1, §2

[4] = tested on: souris; assay: Interaction with apomorphine, mouse; type: in vivo; settings: product I.P. 0,50 h before s.c. apomorphine
Description: • 1°) chez la souris • Des lots de 6 souris reçoivent le produit à étudier 0,50 h avant une injection sous-cutanée de 1 mg/kg ou 16 mg/kg d'apomorphine.

[5] = tested on: rat; assay: Interaction with apomorphine, rat; type: in vivo; settings: product I.P. 0,50 h before s.c. 0,5 mg/kg apomorphine
[6] = tested on: rats; assay: Interaction with amphetamine (stereotypies), rat; type: in vivo; settings: amphétamine 2 mg/kg I.P. half an hour after product, doses de 8 et 32 mg/kg
Description: L'amphétamine (2 mg/kg) est injectée par voie intrapéritonéale à des lots de 6 rats, une demi -heure après l'administration de CRL 41 190.

[7] = tested on: souris; assay: Interaction with reserpine (hypothermia, ptosis), mouse; type: in vivo
Description: Quatre heures après l'injection intrapéritonéale de 2,5 mg/kg de réserpine, des lots de 12 souris reçoivent le CRL 41 190. On étudie l'influence du produit à tester sur l'hypothermie et le ptôsis réserpiniques.

[8] = tested on: souris; assay: Interaction with oxotremorine, mouse; type: in vivo
[9] = tested on: souris; assay: Four-plate test, traction and electroshock, mouse; type: in vivo
Description: Le test est pratiqué sur des lots de 10 souris 0,50 h après l'administration du produit à étudier.

[10] = tested on: souris; assay: Spontaneous motility (actimeter), mouse; type: in vivo; settings: souris, 0,5 h after I.P., recorded 30 minutes; plus forte dose utilisée (64 mg/kg)
[11] = tested on: souris; assay: Intergroup aggressiveness, mouse; type: in vivo; settings: half an hour after I.P., 10 minutes, plus forte dose utilisée (64 mg/kg)
Description: Après avoir séjourné pendant 3 semaines dans chacune des moitiés d'une cage séparées par une cloison opaque, des groupes de 3 souris reçoivent le CRL 41 190. Une demi-heure plus tard, les deux groupes d'une même cage sont réunis par retrait de la cloison et on note le nombre de combats qui surviennent en 10 minutes.

[12] = tested on: souris; assay: Motility reduced by habituation to the enclosure, mouse; type: in vivo; settings: I.P., after 18 heures in actimeter
[13] = tested on: souris; assay: Asphyxic anoxia (gallamine triethiodide), mouse; type: in vivo; settings: product I.P. half an hour before triiodoéthylate de gallamine 32 mg/kg I.P.
[14] = tested on: souris; assay: Interaction with barbital (sleep duration), mouse; type: in vivo; settings: barbital 220 mg/kg I.P. half an hour after product, plus forte dose utilisée (64 mg/kg)
[15] = tested on: souris; assay: Behavioural despair (forced immersion), mouse; type: in vivo; settings: half an hour after I.P., plus forte dose utilisée (64 mg/kg)
Excerpt: On note la durée totale d'immobilité entre la 2ème et la 6ème minutes suivant l'immersion.

[16] = tested on: souris mâle; assay: Complementary neuropsychopharmacological tests by gastric route, mouse; type: in vivo; settings: voie gastrique, 20 ml/kg in distilled water
Description: Des essais complémentaires ont été entrepris, le CRL 41 190 en solution dans de l'eau distillée étant administré par voie gastrique sous un volume de 20 ml/kg chez la souris mâle.

[17] = tested on: l'homme; assay: Clinical treatment of depression, oral administration; type: in vivo
[18] = tested on: souris; settings: half an hour after I.P., dépression de 600 mmHg
[19] = oxotrémorine 0,5 mg/kg I.P., dose de 64 mg/kg
[20] = souris, 0,50 h after I.P. administration

SMILES: CC(C)(C)NCC(SCC(N)=O)c1ccccc1 (racemic) [CRL 41 190, chlorhydratede [α-(tertiobutylamino-méthyl)-benzyl]-thioacétamide]
- DL-0 (dose maximale non mortelle) [1]: > 128 mg/kg
- DL-30 [1]: ~256 mg/kg
- comportement global et réactivités ([2]; dose de 1 mg/kg, observed 0,25 h to 24 h): aùcune modification nette du comportement et et des réactivités
- comportement global et réactivités ([2]; dose de 64 mg/kg): une augmentation de la réaction de peur pendant 1 h et de la réactivité au toucher de 0,5 h à 1 h, une sédation, et, une mydriase faible pendant 1 h
- comportement global et réactivités ([2]; doses de 4 et 16 mg/kg): une augmentation de la réaction de peur, d'υne part, et une augmentation de la réactivité au toucher pendant 0,5 h
- comportement global et réactivités ([3]; dose de 32 mg/kg): une mydriase pendant 1 h
- comportement global et réactivités ([3]; doses de 0,5 mg/kg à 8 mg/kg): un comportement, des réactivités, une variation de la température rectale, et une variation du diamètre pupillaire sensiblement comparables à ceux du lot témoin
- comportements de verticalisation et stéréotypies (apomorphine) [4]: ne sont pratiquement pas modifiés
- hypothermie induite par 16 mg/kg d'apomorphine ([4]; dès la dose de 1 mg/kg): antagonise dès la dose de 1 mg/kg l'hypothermie induite par 16 mg/kg d'apomorphine
- hypothermie induite par 1 mg/kg d'apomorphine ([4]; plus forte dose utilisée (64 mg/k)): s'oppose à l'hypothermie induite par 1 mg/kg d'apomorphine
- stéréotypies induites par l'apomorphine [5]: laisse inchangées les stéréotypies induites par l'apomorphine
- durée des stéréotypies amphétaminiques [6]: augmente nettement la durée des stéréotypies amphétaminiques
- hypothermie réserpinique ([7]; product 4 h after réserpine 2,5 mg/kg I.P., dès la dose de 4 mg/kg): antagonise l'hypothermie réserpinique
- ptôsis réserpinique ([7]; réserpine 2,5 mg/kg I.P., 16 mg/kg et 64 mg/kg, from half an hour after administration): antagonise faiblement le ptôsis réserpinique
- hypothermie réserpinique ([7]; réserpine 2,5 mg/kg I.P., deux plus fortes doses (16 mg/kg et 64 mg/kg)): Cet antagonisme est très net
- signes de stimulation cholinergique périphérique dûs à l'oxotrémorine ([8]; oxotrémorine 0,5 mg/kg I.P., aux autres doses (below 64 mg/kg)): ne modifie pratiquement pas les signes de stimulation cholinergique péripherique dûs à l'oxotrémorine
- intensité des tremblements dûs à l'oxotrémorine [8, 19]: diminue faiblement l'intensité des tremlblements dûs à l'oxotrémorine
- salivation (symptômes cholinergiques périphériques) [8, 19]: diminue faiblement la salivation entre les 1,5 h et 2 h qui suivent son administration
- hypothermie induite par l'oxotrémorine ([8]; oxotrémorine 0,5 mg/kg I.P., doses de 4 mg/kg, 16 mg/kg et surtout 64 mg/kg): Cet antagonisme est net
- hypothermie induite par l'oxotrémorine ([8]; product half an hour before oxotrémorine 0,5 mg/kg I.P., dès la dose de 1 mg/kg): s'oppose à l'hypothermie induite par l'oxotrémorine
- effets convulsivants de l'électrochoc [9, 20]: ne modifie pas les effets convulsivants
- incapacité motrice (traction) [9, 20]: ne provoque pas d'incapacité motrice majeure
- nombre de passages punis (test des quatre plaques) [9, 20]: n'entraîne pas d'augmentation du nombre de passages punis
- effets létaux de l'électrochoc ([9]; souris, I.P., dose de 64 mg/kg): aggrave, à la dose de 64 mg/kg, les effets létaux de l'électrochoc
- activité motrice spontanée [10]: ne modifie pratiquement pas l'activité motrice spontanée de la souris
- nombre de combats [11]: augmente modérément le nombre de combats
- reprise d'activité motrice chez la souris habituée à son enceinte [12]: n'entraîne pas de reprise d'activité motrice chez la souris habituée à son enceinte
- délai d'apparition des convulsions et de la mort consécutives à une anoxie asphyxique [13]: ne modifie pas le délai d'apparition des convulsions et de la mort
- durée du sommeil barbiturique [14]: diminue la durée du sommeil barbiturique
- durée de l'immobilité de la souris placée en immersion forcée [15]: diminue nettement la durée de l'immobilité de la souris placée en immersion forcée
- overall CNS profile by gastric route [16]: agit essentiellement en tant qu'antidépresseur avec, à fortes doses, une composante éveillante et stimulante très modérée
- traitement des dépressions chez l'homme ([17]; administration orale, gélules ou comprimés 25 mg ou 50 mg, 1 à 2 prises par jour, deux à trois semaines): bons résultats
- propriétés antidépressives chez les personnes agées ([17]; clinical, oral): se manifestaient de façon très bénéfique chez les personnes agées
- récupération motrice après anoxie hypobare aigue [18]: n'entraîne pas d'amélioration de la récupération motrice
